Assays:
Akt = experiment: IGF1 activation of endogenous Akt in the salivary gland after tail vein injection (anti-phospho-Akt immunoblot); format: in vivo, mice; settings: for activation of Akt (immunoblotting with anti-phospho-Akt (threonine^473) antibody): salivary gland
Experimental: (§1) FIGS. 12A-C—IGF1 activation of Akt in vivo and rescue of salivary flow rates 3 days after single γ-irradiation exposure. (FIG. 12A) FVB mice received an injection of 1, 5, 10, or 50 ng/ml recombinant IGF1. Tissue lysates were collected for immunoblotting five minutes after injection and membranes were probed for activation of Akt using a phosphorylation specific antibody. (FIG. 12B) FVB mice received an injection of 5 μg/ml recombinant IGF1 and tissue lysates were collected for immunoblotting 0, 5, 10 or 30 min after injection. Membranes were probed for activated Akt as described in FIG. 12A. Membranes were stripped and re-probed with a total antibody against ERK1/2 as a loading control in both A and B. (FIG. 12C) Four-week old female FVB mice were injected with 5 μg/ml recombinant IGF1 immediately prior to treatment with 1Gy γ-irradiation. Total saliva was collected following carbachol injection as described in FIG. 11 three days after radiation exposure. For Untreated, N=10; for IGF1, N=5; for 1 Gy, N=10, and for 1 Gy+IGF1, N=7. Statistical analysis was performed using Student's t-test in Microsoft Excel.
(§2) γ-irradiation treatment. For in vivo experiments, four-week old female FVB and myr-Akt1 transgenic mice were anesthetized with avertin (0.4-0.6 mg/gm, IP) and the head and neck region was exposed to ionizing radiation using a RS 2000 Biological Irradiator (Humphries et al., 2006). The rest of the body was shielded with 6 mm lead foil and sheets to avoid systemic effects of γ-irradiation. […] For IGF1 injections, mice were anesthetized with avertin and tails were warmed in water to allow dilation of blood vessels. Mice were injected with a total volume of 100 μl of IGF1 diluted in sterile PBS and immediately placed into the radiation chamber.
Stimulation of cells with both IGF1 and EGF produced a synergistic activation of Akt and suppression of apoptosis (Limesand et al., 2003). […] Mice were injected with 1, 5, 10, or 50 μg recombinant IGF1 and the activation of Akt was examined in the salivary gland five minutes after injection.
The inventors also determined the kinetics with which Akt was activated following injection of mice with 5 μg IGF1. Salivary glands were removed at 5, 10, and 30 minutes post-injection, tissue lysates prepared, and the activation of Akt examined by immunoblotting with anti-phospho-Akt ([…]) antibody (FIG. 12B). […] Future studies are needed to determine whether Akt remains activated for longer periods of time.

FVB mice = experiment: Salivary flow rate after head and neck γ-irradiation (carbachol-stimulated saliva collection); format: in vivo
Experimental: FIG. 11—Rescue of salivary flow rates 3 days after single γ-irradiation exposure in Myr-Akt1 mice. Four-week old female FVB and myr-Akt1 mice were exposed to 1, 2, or 5Gy γ-irradiation. Three days after irradiation total saliva was collected (over a five-minute period) following carbachol injection. Statistical analysis was performed using Student's t-test in Microsoft Excel.
as §1
FIG. 13—Rescue of salivary flow rates 30 days after single γ-irradiation exposure by Myr-Akt1 or injection with IGF1. Four-week old female FVB, myr-Akt1 and FVB mice injected with 5 μg/ml recombinant IGF1 were exposed to 1Gy γ-irradiation. IGF1 injections were performed immediately prior to radiation exposure as described in FIGS. 12A-C. Thirty days after exposure to γ-irradiation total saliva was collected following carbachol injection as described in FIG. 11. For unirradiated, untreated, N=8; for unirradiated myr-Akt1, N=8; for unirradiated IGF1 injected, N=8; for 1 Gy irradiated FVB, N=8, for myr-Akt1 riiadiated with 1 Gy, N=6, for FVB that received IGF1 and I Gy, N=6. Statistical analysis was performed using multiple comparison testing in the SAS system.
as §2, with “Mice were injected with a total volume of 100 μl of IGF1 diluted in sterile PBS and immediately placed into the radiation chamber.” left out

salivary acinar cells [1] = experiment: Activated caspase-3 staining of irradiated salivary glands (apoptotic cells); format: in vivo; settings: pretreatment of mice with IGF1
Experimental: Activated caspase-3 staining. Salivary glands were removed at various time points post-irradiation, fixed in 10% neutral buffered formalin, and then embedded in paraffin. Slides were stained for activated caspase-3 (Cell Signaling #9661; Beverly, Mass.) as previously described (Humphries et al., 2006). Cell counts were performed on a minimum of five fields of view per slide from three mice (total cells counted ranged from 1800-2500 per mouse).

salivary acinar cells [2] = settings: cited from earlier work
[3] = system: primary salivary acinar cells; experiment: Induction of apoptosis in primary salivary acinar cells (caspase-3 activity); format: cell-based, mouse
Experimental: In FIG. 3A, all adherent and nonadherent primary parotid acinar cells were collected and lysed in caspase lysis buffer (BioMol QuantiZyme Colormetric Assay kit) and 15 μg of cell lysate was used to analyze the level of enzyme activity for each sample in quadruplicate. The ability of the enzyme to cleave a chromogenic substrate was read at A405 every ten minutes for seven hours and the -fold increase relative to untreated parotid cells is plotted. […] In FIG. 3B, primary submandibular acinar cells were collected in caspase lysis buffer as described above and the -fold increase relative to untreated submandibular cells is plotted. […] Graphs of caspase activity represent all data points collected from five independent experiments and Student's t-test p values were calculated using Microsoft Excel comparing two different treatment groups.
Generation and cultivation of primary salivary acinar cells. Primary salivary acinar cells were prepared from 4-5 week old female FVB or myr-Akt1 transgenic mice. […]
Induction and quantitation of apoptosis. […] Activation of caspase 3 was quantitated using BioMol QuantiZyme Colormetric Assay kit (Plymouth Meeting, Pa.). […] Caspase-3 activity in 15 μg of cellular lysate was measured by the cleavage of Ac-DEVD-pNA substrate and absorbance at A405 was quantitated in a microtiter plate reader (Molecular Devices) at 10-minute intervals for 7 hrs.

ATM and Chk1 = experiment: Phosphorylation of ATM, Chk1 and p53 in myr-Akt1 primary salivary acinar cells (immunoblot); format: cell-based, mouse; settings: with or without siRNA that targeted MDM2
Experimental: In FIG. 9A, primary salivary acinar cells isolated from myr-Akt1 mice were transfected with various control or MDM2 specific siRNA molecules. Cell lysates were collected 24-72 hrs after transfection and immunoblotted with an anti-MDM2 antibody (top panel) or anti-p53 (DO12, middle panel). […] In lanes 6 and 7, primary salivary acinar cells isolated from myr-Akt1 mice were transfected with siRNA molecules targeting MDM2 for 48 hrs.
Immunoblotting. Tissues were lysed in RIPA (150 mM NaCl, 50 mM Tris, pH 7.4, 2 mM EGTA, 1% Triton X-100, 0.25% sodium deoxycholate) supplemented with protease inhibitor cocktail (Sigma Chemical Company, St. Louis, Mo.), 100 μg/ml phenylmethylsulfonyl fluoride, and 100 U/ml aprotinin (Pierce Chemical Company, Rockford, Ill.). […] Primary salivary acinar cells were lysed in JNK lysis buffer (25 mM HEPES, pH 7.5, 20 mM β-glycerophosphate, 0.1 mM sodium orthovandadate, 0.1% Triton X-100, 0.3M NaCl, 1.5 mM MgCl2, 0.2 mM EDTA, 0.5 mM dithiothreitol, and 10 mM NaF) supplemented with aprotinin (4 μg/ml), Prefebloc (0.5 mg/ml), and leupeptin (2 μg/ml) (Pierce Chemical Company) and 1 mM sodium orthovandate, and the lysates clarified by centrifugation at 4° C. for 30 min at 13,000 rpm in a refrigerated Savant microcentrifuge (Anderson et al., 1999). Protein concentrations were determined using the BCA Protein Assay Kit (Pierce Chemical Company). […]

| Compound | phosphorylated Akt thirty minutes following administration (Akt; 5 μg IGF1, salivary gland) | time of maximal activation of Akt after injection (Akt; 5 μg IGF1, salivary glands removed at 5, 10 and 30 minutes) | activation of Akt (immunoblotting with anti-phospho-Akt (threonine^473) antibody) (Akt; five minutes after injection of 1 μg and 5 μg IGF1) | activation of Akt (immunoblotting with anti-phospho-Akt (threonine^473) antibody) (Akt; five minutes after injection of 10 and 50 μg IGF1 per mouse) | salivary flow rate, IGF1 alone (FVB mice; 5 μg IGF1, unirradiated mice, three days following injection) | salivary flow rate versus unirradiated FVB control mice (FVB mice; IGF1 injected, unirradiated, thirty-day time point) | irradiation-induced reduction in salivary flow rate (FVB mice; single dose of 5 μg recombinant IGF1 immediately prior to 1 Gy, three days after exposure) | decrease in salivary flow rate compared to controls (FVB mice; single dose of IGF1 prior to 1 Gy γ-irradiation, 30 days after exposure) | number of apoptotic cells after irradiation (salivary acinar cells [1]) | activation of Akt (salivary acinar cells [2]) | apoptosis induced by etoposide (salivary acinar cells [2]) | apoptosis of salivary acinar cells ([3]; cells from FVB control mice) | apoptosis (caspase-3 activation) ([3]; myr-Akt1 salivary acinar cells, 18 hrs after treatment) | phosphorylation of ATM at serine^1981 (ATM and Chk1) |
| --- | --- | --- | --- | --- | --- | --- | --- | --- | --- | --- | --- | --- | --- | --- |
| IGF1: recombinant IGF1, activator of the Akt pathway, injected into the tail vein of mice | could still be detected | five | results in the activation of Akt | did not result in the activation of Akt | had no effect | not a statistical difference | completely suppressed | no decrease in salivary flow rate | significantly decreases the number of apoptotic cells | induces activation of Akt | suppresses apoptosis | – | – | – |
| COc1cc([C@@H]2c3cc4c(cc3[C@@H](O[C@@H]3O[C@@H]5CO[C@@H](C)O[C@H]5[C@H](O)[C@H]3O)[C@H]3COC(=O)[C@H]23)OCO4)cc(OC)c1O [etoposide] | – | – | – | – | – | – | – | – | – | – | – | induce apoptosis | did induce some apoptosis | resulted in the phosphorylation of ATM |

Source: patent US20090286731A1, “METHODS AND COMPOSITIONS FOR THE TREATMENT OF XEROSTOMIA” (THE REGENTS OF THE UNIVERSITY OF COLORADO, A BODY CORPORATE, priority 2006, published 2009)
